# In patent US4076802A (priority 1977, dated 1978):
# Where two headings read alike, the source gives them in different places.
# Experiments:
# mice = test: 24 hour acute toxicity in mice; format: in vivo
# housefly = test: Larvicidal activity; format: in vivo
# [1] = tested on: Rhizoctonia solani (damping off diseases); test: Activity against plant disease fungi on several crops; format: in vivo
# [2] = tested on: Piricularia oryzae (rice blast disease); conditions: in vivo
# [3] = tested on: Penicillium digitatum 0184 (mold); test: Antifungal MIC, Table 5; format: cell-based; conditions: Culture ATCC 26821
# [4] = tested on: Saccharomyces cerevisiae 90 (yeast); test: Antifungal MIC, Table 5; format: cell-based; conditions: Culture ATCC 4226
# wood decay organisms = test: Fungicidal activity; format: in vivo; conditions: spraying as 25% wettable powder
# Solubility in solvents = format: physicochemical
# army worm = test: Larvicidal activity; format: in vivo
# [5] = tested on: Candida albicans 155 (yeast); test: Antifungal MIC, Table 5; format: cell-based; conditions: Culture NRRL 477
# KB cells = test: KB monolayer cytotoxicity test; format: cell-based, human
# [6] = tested on: Uromyces species (cereal rust disease); test: Activity against plant disease fungi on several crops; format: in vivo
# bean beetle = test: Larvicidal activity; format: in vivo
# Colorado potato beetle = test: Larvicidal activity; format: in vivo
# mosquito larvae = test: Larvicidal activity; format: in vivo
# [7] = tested on: Botrytis cinerea (grey mold diseases); test: Activity against plant disease fungi on several crops; format: in vivo
# [8] = tested on: Paecilomyces varioti M16 (fungus); test: Antifungal MIC, Table 5; format: cell-based; conditions: Culture ATCC 26820
# [9] = tested on: Puccinia species (cereal rust disease); test: Activity against plant disease fungi on several crops; format: in vivo
# crown rust of oats = test: Fungicidal activity; format: in vivo; conditions: spraying as 25% wettable powder
smiles,measurement,setting,value
C/C=C/[C@H]1O[C@@](O)([C@@H](C)[C@H](O)[C@H](C)[C@H]2OC(=O)/C(OC)=C/C(C)=C/[C@@H](C)[C@@H](O)[C@@H](CC)[C@@H](O)[C@H](C)C/C(C)=C/C=C/[C@@H]2OC)C[C@@H](O[C@H]2C[C@@H](O)[C@H](OC(N)=O)[C@@H](C)O2)[C@@H]1C,24 hour acute toxicity (LD50),mice; i.p.,2.45 mg/kg
same,24 hour acute toxicity (LD50),mice; p.o.,21 mg/kg
same,larvicidal activity,housefly,excellent activity
same,activity against Rhizoctonia solani,[1],active
same,activity against Piricularia oryzae,[2],active
same,fungicidal activity,[2],exhibits fungicidal activity
same,MIC value,[3],3.33 µg/mL
same,MIC value,[4],3.33 µg/mL
same,fungicidal activity,wood decay organisms,exhibits fungicidal activity
same,solubility,Solubility in solvents; in 95% ethanol,47.5 mg/mL
same,solubility,Solubility in solvents; in acetone,> 100 mg/mL
same,solubility,Solubility in solvents; in benzyl alcohol,> 100 mg/mL
same,solubility,Solubility in solvents; in dimethylformamide,> 100 mg/mL
same,solubility,Solubility in solvents; in glycerine,< 1 mg/mL
same,solubility,Solubility in solvents; in methanol,> 100 mg/mL
same,solubility,Solubility in solvents; in polyethylene glycol 400,< 1 mg/mL
same,solubility,Solubility in solvents; in propylene glycol,< 1 mg/mL
same,solubility,Solubility in solvents; in tetrahydrofuran,> 100 mg/mL
same,solubility,Solubility in solvents; in water,< 1 mg/mL
same,larvicidal activity,army worm,excellent activity
same,MIC value,[5],1.11 µg/mL
same,ID50,KB cells,0.0045 µg/mL
same,activity against Uromyces species,[6],active
same,larvicidal activity,bean beetle,excellent activity
same,larvicidal activity,bean beetle; spraying on leaves,exhibits larvicidal activity
same,larvicidal activity,Colorado potato beetle,excellent activity
same,larvicidal activity,Colorado potato beetle; spraying on leaves,exhibits larvicidal activity
same,larvicidal activity,mosquito larvae; mosquito larvae,excellent activity
same,larvicidal activity,"mosquito larvae; mosquito, spraying",exhibits larvicidal activity
same,fungicidal activity,"[7]; grey mold, spraying as 25% wettable powder",exhibits fungicidal activity
same,activity against Botrytis cinerea,[7]; on several crops,active
same,MIC value,[8],3.33 µg/mL
same,activity against Puccinia species,[9],active
same,fungicidal activity,crown rust of oats,exhibits fungicidal activity
